Article PMC6331809, “Antigenotoxicity and Tumor Growing Inhibition by Leafy Brassica carinata and Sinigrin” (Molecules, 2015)
Converted amounts (≈) assume the structure as drawn. “And” between values parts separate entries of the source, which are not always exact repeats. Equal entries are not always repeated. Where two headings read alike, the source gives them in different places. Marks after values point to notes of the source that are not given here.

Assays:
Drosophila melanogaster [1] = assay: Toxicity in SMART: Drosophila adult survival after simple and combined (H2O2) treatment; type: in vivo; conditions: for Survival, average: average over all assayed concentrations
Description: Toxicity (T) was determined as percentage of survival adults with respect to 450 untreated 72 h old larvae from three independent experiments: T = (N° of emerging individuals in treatment/N° of emerging individuals in the negative control) × 100(1)

[2] = test system: hamster ovary cell line (CHO); conditions: cited from earlier work
Drosophila melanogaster [3] = assay: Antigenotoxicity in SMART, combined treatment with H2O2; type: in vivo; conditions: for Large single spots > 2 cells; m = 5: mutation rate (number of spots) / Small single spots 1–2 cells; m = 2: diagnosis / Small single spots 1–2 cells; m = 2: mutation rate (number of spots) / Total spots m = 2: diagnosis / Total spots m = 2: mutation rate (number of spots) / Twin spots m = 5: mutation rate (number of spots): combined with 0.12 M H2O2; on Small single spots 1–2 cells; m = 2: diagnosis: key: + (positive); − (negative); on Total spots m = 2: diagnosis: key: + (positive); − (negative)
Description: (§1) The genotoxic and antigenotoxic activity of lyophilized leaves of B. carinata and sinigrin were evaluated by the Drosophila Somatic Mutation and Recombination Test (SMART). Drosophila is a holometabolous animal which in vivo experiments permit to make analogies with humans due to the high percentage of homologue genes in common with human. […] Both characteristics make this test an optimal protocol in order to test molecules and complex mixtures with health benefices for humans. Two different D. melanogaster strains carrying visible wing genetic markers on the left arm of chromosome 3 were used: the flare (flr) strain flr^3/ln (3LR) TM3, Bd^s and the multiple wing-hair (mwh) strain mwh/mwh. These markers were selected due to their position in the Drosophila genome, covering a wide portion of one of their four chromosomes. Specifically, they affect the wing imaginal disks which present more cells with a uniform growth during larvae development than other Drosophila imaginal disks. This fact makes possible to detect easily a high number of mutations, somatic recombinations and disjunctions produced in the Drosophila DNA during all treatment periods by wing microscopic observation. In this sense, these markers are present in other genetic background (strains) but crosses produce mutations with a basal mutation rate too high and disturbing hair anomalous pattems. The marker flare (flr^3, 3_38.3) is a recessive mutation which produces individual wing hairs that are malformed. The flr^3 allele is a zygotic recessive lethal, which is maintained in the strain over the balancer chromosome TM3 (TM3, Bd^S: Third Multiple 3, Beaded-Serrate). The marker multiple wing hairs (mwh, 3_0.3) is a recessive mutation that is viable in homozygous flies, producing multiple hairs per cell instead of the wild type single-hair trichome. Two types of crosses were used: the standard cross with flr^3/TM3, Bd^S females mated to mwh/mwh males and the reciprocal cross.
(§2) Hybrid eggs from crossing optimally fertile flies were collected over an 8-h period. Emerged larvae, 72 ± 4 h later, were cleaned up from remaining feeding medium, using sterile distilled water, and subsequently were transferred into treatment vials. These vials contained tested conditions which consisted of 0.85 g of Drosophila Instant Medium (Formula 4–24, Carolina Biological Supply, Burlington, NC, USA) wetted with 4 mL of a mixture of distilled-sterile water and the appropriate concentration of lyophilized plant or the single compound sinigrin.
(§3) Genotoxicity/antigenotoxicity tests were performed following the standard protocol. Antigenotoxicity tests were carried out by mixing the genotoxin hydrogen peroxide (H2O2, Sigma-Aldrich) with the plant or single compound in appropriate concentrations.
(§4) The groups consisting of approximately 100 larvae each were: (i) negative control (distilled water); (ii) mutagenic positive control (H2O2 0.12 M); (iii) 3 vials with increasing concentrations of B. carinata (1.25, 2.5, and 5 mg·mL^−1); and (iv) 4 vials with increasing concentrations of sinigrin (0.6, 1.2, 2.4 and 4.8 mM). Sinigrin concentrations were chosen on the basis of the sinigrin content of the B. carinata sample used in this study.
(§5) Larvae were fed on both treated and control mediums until pupation (about 48 h). After emergence, resulting adult flies were collected from the treatment vials, sacrificed under CO2 narcotization and stored in a 70% ethanol solution in sterile water.
(§6) Transheterozygous wings (mwhflr^+/mwh^+ flr^3) were mounted and wing hair mutations (spots) were scored. Both dorsal and ventral surfaces of the wings containing 22,000 cells were screened under a photonic microscope (Nikon, Amsterdam, Netherlands) at 400× magnification for the occurrence of individual spots (mwh or flr phenotype) or twin spots (mwh clone adjacent to flr clone).

Drosophila melanogaster [4] = test system: Drosophila melanogaster
Description: as §1, §2, §3, §4, §5, §6

Caenorhabditis elegans = test system: Caenorhabditis elegans; set-up: method as in PMID 19277288; conditions: C. elegans, cited from earlier work
[5] = test system: induced hepatocarcinogenesis in rats; set-up: method as in PMID 2387027; dose or concentration left out as unconfirmed; conditions: orally in a diet; cited from earlier work
[6] = sinigrin 0.60 mM, simple treatment
[7] = sinigrin 1.20 mM, simple treatment
[8] = sinigrin 2.40 mM, simple treatment
[9] = sinigrin 4.81 mM, simple treatment

Structure (SMILES): C=CCC(=NOS(=O)(=O)O)S[C@@H]1O[C@H](CO)[C@@H](O)[C@H](O)[C@H]1O (stereo in doubt) [Sinigrin, sinigrin]
- Survival, average (Drosophila melanogaster [1]; combined treatments with 0.12 M H2O2): 38.11%
- Survival, average (Drosophila melanogaster [1]; simple treatments): 68.27%
- Survival (Drosophila melanogaster [1]; sinigrin 0.60 mM, combined with 0.12 M H2O2): 25.56 * %
- Survival (Drosophila melanogaster [1]; sinigrin 0.60 mM, combined with 0.12 M H2O2, listed as sinigrin): 25.56%
- Survival (Drosophila melanogaster [1]; [6]): 56.44 * %
- Survival (Drosophila melanogaster [1]; sinigrin 1.20 mM, combined with 0.12 M H2O2): 19.33 * %
- Survival (Drosophila melanogaster [1]; sinigrin 1.20 mM, combined with 0.12 M H2O2, listed as sinigrin): 19.33%
- Survival (Drosophila melanogaster [1]; [7]): 78.22 * %
- Survival (Drosophila melanogaster [1]; sinigrin 1.20 mM, simple treatment, listed as sinigrin): 78.22%
- Survival (Drosophila melanogaster [1]; sinigrin 2.40 mM, combined with 0.12 M H2O2): 47.33 * %
- Survival (Drosophila melanogaster [1]; [8]): 61.56 * %
- Survival (Drosophila melanogaster [1]; sinigrin 4.81 mM, combined with 0.12 M H2O2): 60.22 * %
- Survival (Drosophila melanogaster [1]; sinigrin 4.81 mM, combined with 0.12 M H2O2, listed as sinigrin): 60.22%
- Survival (Drosophila melanogaster [1]; [9]): 76.89 * %
- Reduction of survival (Drosophila melanogaster [1]; survival average, combined (H2O2) against simple treatments): ~ 30%
- Chromosome aberrations / sister chromatid exchanges ([2]; at concentrations of 2 mg·mL^−1): induced chromosome aberrations but not sister chromatid exchanges
- Genotoxicity and cytotoxicity [2]: neither genotoxic nor cytotoxic
- Large single spots > 2 cells; m = 5: mutation rate (number of spots) (Drosophila melanogaster [3]; sinigrin 0.60 mM): 0 spots per wing
- Small single spots 1–2 cells; m = 2: diagnosis (Drosophila melanogaster [3]; sinigrin 0.60 mM): −
- Small single spots 1–2 cells; m = 2: mutation rate (number of spots) (Drosophila melanogaster [3]; sinigrin 0.60 mM): 0.19 (6) spots per wing
- Total spots m = 2: diagnosis (Drosophila melanogaster [3]; sinigrin 0.60 mM): −
- Total spots m = 2: mutation rate (number of spots) (Drosophila melanogaster [3]; sinigrin 0.60 mM): 0.19 (6) spots per wing
- Twin spots m = 5: mutation rate (number of spots) (Drosophila melanogaster [3]; sinigrin 0.60 mM): 0 spots per wing
- Large single spots > 2 cells; m = 5: mutation rate (number of spots) (Drosophila melanogaster [3]; sinigrin 1.20 mM): 0 spots per wing
- Small single spots 1–2 cells; m = 2: diagnosis (Drosophila melanogaster [3]; sinigrin 1.20 mM): −
- Small single spots 1–2 cells; m = 2: mutation rate (number of spots) (Drosophila melanogaster [3]; sinigrin 1.20 mM): 0.20 (4) spots per wing
- Total spots m = 2: diagnosis (Drosophila melanogaster [3]; sinigrin 1.20 mM): −
- Total spots m = 2: mutation rate (number of spots) (Drosophila melanogaster [3]; sinigrin 1.20 mM): 0.20 (4) spots per wing
- Twin spots m = 5: mutation rate (number of spots) (Drosophila melanogaster [3]; sinigrin 1.20 mM): 0 spots per wing
- Large single spots > 2 cells; m = 5: mutation rate (number of spots) (Drosophila melanogaster [3]; sinigrin 2.40 mM): 0 spots per wing
- Small single spots 1–2 cells; m = 2: diagnosis (Drosophila melanogaster [3]; sinigrin 2.40 mM): −
- Total spots m = 2: diagnosis (Drosophila melanogaster [3]; sinigrin 2.40 mM): −
- Twin spots m = 5: mutation rate (number of spots) (Drosophila melanogaster [3]; sinigrin 2.40 mM): 0 spots per wing
- Percentage of inhibition of clone formation (Drosophila melanogaster [3]; sinigrin 4.81 mM, against H2O2): 84.61%
- Large single spots > 2 cells; m = 5: mutation rate (number of spots) (Drosophila melanogaster [3]; sinigrin 4.81 mM): 0 spots per wing
- Small single spots 1–2 cells; m = 2: diagnosis (Drosophila melanogaster [3]; sinigrin 4.81 mM): −
- Small single spots 1–2 cells; m = 2: mutation rate (number of spots) (Drosophila melanogaster [3]; sinigrin 4.81 mM): 0.10 (1) spots per wing
- Total spots m = 2: diagnosis (Drosophila melanogaster [3]; sinigrin 4.81 mM): −
- Total spots m = 2: mutation rate (number of spots) (Drosophila melanogaster [3]; sinigrin 4.81 mM): 0.10 (1) spots per wing
- Twin spots m = 5: mutation rate (number of spots) (Drosophila melanogaster [3]; sinigrin 4.81 mM): 0 spots per wing
- Total mutation rate, average (Drosophila melanogaster [4]; average over all doses, simple treatment): 0.15 spots per wing
- Large single spots > 2 cells; m = 5: diagnosis (Drosophila melanogaster [4]; [6]): −
- Large single spots > 2 cells; m = 5: mutation rate (number of spots) (Drosophila melanogaster [4]; [6]): 0.03 (1) spots per wing
- Small single spots 1–2 cells; m = 2: diagnosis (Drosophila melanogaster [4]; [6]): −
- Small single spots 1–2 cells; m = 2: mutation rate (number of spots) (Drosophila melanogaster [4]; [6]): 0.18 (7) spots per wing
- Total spots m = 2: diagnosis (Drosophila melanogaster [4]; [6]): −
- Total spots m = 2: mutation rate (number of spots) (Drosophila melanogaster [4]; [6]): 0.20 (8) spots per wing
- Twin spots m = 5: mutation rate (number of spots) (Drosophila melanogaster [4]; [6]): 0 spots per wing
- Large single spots > 2 cells; m = 5: diagnosis (Drosophila melanogaster [4]; [7]): −
- Large single spots > 2 cells; m = 5: mutation rate (number of spots) (Drosophila melanogaster [4]; [7]): 0.03 (1) spots per wing
- Small single spots 1–2 cells; m = 2: diagnosis (Drosophila melanogaster [4]; [7]): −
- Small single spots 1–2 cells; m = 2: mutation rate (number of spots) (Drosophila melanogaster [4]; [7]): 0.12 (4) spots per wing
- Total spots m = 2: diagnosis (Drosophila melanogaster [4]; [7]): −
- Total spots m = 2: mutation rate (number of spots) (Drosophila melanogaster [4]; [7]): 0.18 (6) spots per wing
- Twin spots m = 5: diagnosis (Drosophila melanogaster [4]; [7]): −
- Twin spots m = 5: mutation rate (number of spots) (Drosophila melanogaster [4]; [7]): 0.03 (1) spots per wing
- Large single spots > 2 cells; m = 5: diagnosis (Drosophila melanogaster [4]; [8]): −
- Large single spots > 2 cells; m = 5: mutation rate (number of spots) (Drosophila melanogaster [4]; [8]): 0.03 (1) spots per wing
- Small single spots 1–2 cells; m = 2: diagnosis (Drosophila melanogaster [4]; [8]): −
- Small single spots 1–2 cells; m = 2: mutation rate (number of spots) (Drosophila melanogaster [4]; [8]): 0.08 (3) spots per wing
- Total spots m = 2: diagnosis (Drosophila melanogaster [4]; [8]): −
- Total spots m = 2: mutation rate (number of spots) (Drosophila melanogaster [4]; [8]): 0.11 (4) spots per wing
- Twin spots m = 5: mutation rate (number of spots) (Drosophila melanogaster [4]; [8]): 0 spots per wing
- Large single spots > 2 cells; m = 5: mutation rate (number of spots) (Drosophila melanogaster [4]; [9]): 0 spots per wing
- Small single spots 1–2 cells; m = 2: diagnosis (Drosophila melanogaster [4]; [9]): −
- Small single spots 1–2 cells; m = 2: mutation rate (number of spots) (Drosophila melanogaster [4]; [9]): 0.14 (4) spots per wing
- Total spots m = 2: diagnosis (Drosophila melanogaster [4]; [9]): −
- Total spots m = 2: mutation rate (number of spots) (Drosophila melanogaster [4]; [9]): 0.14 (4) spots per wing
- Twin spots m = 5: mutation rate (number of spots) (Drosophila melanogaster [4]; [9]): 0 spots per wing
- Non-toxic up to the concentration (Caenorhabditis elegans): ≤ 80 g/L
- LC50 (Caenorhabditis elegans; with addition of myrosinase): 500 µg/mL (≈ 1390 µM)
- Effect on induced hepatocarcinogenesis [5]: able to inhibit induced hepatocarcinogenesis

Structure (SMILES): C=CCN=C=S [AITC, allyl-ITCs, reference compound]
- Genotoxicity ([2]; at high cytotoxic doses): not genotoxic
- Lethal concentration value (Caenorhabditis elegans): 0.04 g/L

Structure (SMILES): OO [H2O2, hydrogen peroxide, reference compound]
- Survival (Drosophila melanogaster [1]; H2O2 0.12 M, simple treatment, emerged adults vs H2O control): 37.78% and 37.78 * %
- Large single spots > 2 cells; m = 5: diagnosis (Drosophila melanogaster [4]; in vivo): −
- Large single spots > 2 cells; m = 5: mutation rate (number of spots) (Drosophila melanogaster [4]; in vivo): 0.07 (11) spots per wing
- Small single spots 1–2 cells; m = 2: diagnosis (Drosophila melanogaster [4]; in vivo): +
- Small single spots 1–2 cells; m = 2: mutation rate (number of spots) (Drosophila melanogaster [4]; in vivo): 0.60 (94) spots per wing
- Total spots m = 2: diagnosis (Drosophila melanogaster [4]; in vivo): +
- Total spots m = 2: mutation rate (number of spots) (Drosophila melanogaster [4]; in vivo): 0.65 (109) spots per wing
- Twin spots m = 5: diagnosis (Drosophila melanogaster [4]; in vivo): −
- Twin spots m = 5: mutation rate (number of spots) (Drosophila melanogaster [4]; in vivo): 0.06 (4) spots per wing
